Data on five molecules can be found in PubChem BioAssay (NCI).

Assay in all cases: NCI tumour cell line growth inhibition, 48 h
In test [1] the test system is SF-268 CNS.
Test [2] deals with SNB-75 CNS.
The test system of test [3] is NCI-H226 lung.
Test [4] relates to HCC-2998 colon.
Test [5] deals with A498 renal.
Test [6] has as its system HOP-62 NSCLC.
In test [7] the test system is DU-145 prostate.
Test [8] concerns UO-31 renal.
In test [9] the test system is RXF 393 renal.
In test [10] the test system is UACC-257 melanoma.

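A five-concentration, 48-hour dose response in 96-well plates underlies each endpoint, interpolated linearly between surrounding concentrations. GI50 is the concentration that inhibits growth by half. TGI marks complete inhibition of growth.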

For `Oc1ccc(Br)cc1/C=N/NC(=S)NC12CC3CC(CC(C3)C1)C2`, the GI50 in [1] was 1.44 µM; in test [2] it was 2.03 µM; in test [3] it was 1.95 µM; in test [4] it was 1.95 µM; in test [5], 2.18 µM; in [6], 1.52 µM. The GI50 in test [7] is 2.25 µM; in [8], 1.33 µM; in test [9] it was 1520 nM; in test [10], 2110 nM. In addition, the TGI in test [1] is 4.14 µM; in [2], 7.15 µM; in test [3], 4.8 µM; in [4] it was 4.6 µM; in test [5] it was 7.19 µM; in test [6], 3.32 µM. For the same molecule, the TGI was 6.73 µM in test [7], 2.78 µM in [8], 3.36 µM in test [9] and 6.96 µM in [10].

Turning to `CCN(Cc1nc2cc(C(F)(F)F)ccc2nc1-c1ccccc1)c1ccc(OC)c(OC)c1`, the GI50 is 26.1 µM in [1]; 24.5 µM in test [2]; 13.2 µM in test [3]; 16.7 µM in test [4]; 4.42 µM in test [5]; 15.1 µM in test [6]. Also, the GI50 is 14.5 µM in [7], 19.8 µM in test [8], 312 nM in [9] and 24.9 nM in test [10]. Further, the TGI is > 100 µM in [1]; 71.7 µM in [2]; 29 µM in test [3]; 34.4 µM in test [4]; 20.7 µM in test [5]; 29.1 µM in [6]. Moreover, the TGI in [7] turned out to be 31.9 µM; in test [8], 46.2 µM; in test [9] it was 9.09 µM; in test [10], 0.793 µM.

Turning to `CCCC[P+](c1ccccc1)(c1ccccc1)c1ccccc1`, the GI50 in test [1] was 5.66 µM; in [2], 4.95 µM; in test [3] it was 5.34 µM; in test [4], 1.42 µM; in test [5], 3.46 µM; in test [6] it was 2.55 µM. Moreover, the GI50 in [7] was 4.41 µM; in test [8], 24.2 µM; in [9], 18500 nM; in [10], 610 nM. Besides, the TGI in test [1] was > 100 µM; in [2], > 100 µM; in test [3] it was > 100 µM; in [4], > 100 µM; in test [5], 29.5 µM; in [6], > 100 µM. Also, the TGI in test [7] was > 100 µM; in test [8] it was > 100 µM; in test [9], > 100 µM; in test [10] it was 7.6 µM.

For `COC(=O)c1c2c(c(C)[n+]([O-])c1C)C(=O)C(NCc1cccc(OC)c1)=CC2=O`, the GI50 was 2.86 µM in [1]; 3.03 µM in test [2]; 3.32 µM in [3]; 3.12 µM in test [4]; 1.79 µM in test [5]; 3.07 µM in test [6]. The GI50 in test [7] is 3.43 µM; in test [8] it was 2.27 µM; in [9], 2580 nM; in [10], 1550 nM. The TGI in test [1] was 11.7 µM; in [2], 12.9 µM; in test [3] it was 13 µM; in [4], 9.64 µM; in test [5], 5.3 µM; in [6], 25.3 µM. In addition, the TGI in test [7] amounted to 12 µM; in [8] it was 9.25 µM; in test [9], 5.2 µM; in test [10], 3.27 µM.

For `O=C(c1ccco1)c1c(C(F)(F)F)nc2cc(C(F)(F)F)ccc2[n+]1[O-]`, the GI50 in test [1] is 24.6 µM; in [2], 16.6 µM; in test [3] it was > 100 µM; in [4], > 100 µM; in test [5], 20.5 µM; in [6], 22.9 µM. For the same molecule, the GI50 in test [7] is 45.1 µM; in test [8], 66.9 µM; in test [9], 20300 nM; in [10] it was > 100000 nM. Moreover, the TGI in [1] is 81.3 µM; in test [2], 42.7 µM; in [3], > 100 µM; in [4], > 100 µM; in test [5], 63.8 µM; in [6], > 100 µM. The TGI in test [7] is > 100 µM; in test [8] it was > 100 µM; in test [9], 80 µM; in [10], > 100 µM.
